From patent publication US8258295B2, “Triazine derivatives, compositions containing such derivatives, and methods of treatment of cancer and autoimmune diseases using such derivatives” (Prometic Biosciences Inc., priority 2007, dated 2012)

Key:
NZB×NZW mice = assay: Systemic lupus erythematosus model, NZB×NZW mice; format: in vivo; conditions: IV once a week from week 10 to week 46; FIG. 12
Source text: New Zealand mice of the F1 hybrid cross NZB×NZW develop most of the autoimmune abnormalities seen in human SLE and die from SLE-like immune complex (IC)-mediated glomerulonephritis. The mice develop high titers of anti-DNA (double-strand and single-strand) and nuclear extract (NE) antibodies, as well as SLE-related clinical manifestations including leukopenia, thrombocytopenia, proteinuria, and glomerulonephritis. These mice develop anti-DNA antibodies after the age of three months, with a peak of anti-DNA antibody response occurring at seven months. Subsequently, the serum concentration of anti-DNA antibodies declines, presumably as a consequence of progressive uremia. The first serological manifestations of the disease occurs at about 150 days (i.e., five months). Their survival is evaluated at approximately 250 days.
Intravenous administration of compound or vehicle was undertaken once a week from week 10 to week 46.

DNBS-induced colitis = DNBS-induced colitis in CD1 mice; format: in vivo; conditions: vs vehicle
Protocol: The 2,4-dinitrobenzene sulfonic acid (DNBS) induced experimental colitis mouse model serves as a model of inflammatory bowel disease. On day 0, CD1 mice were sensitized with DNBS by intra-colinic instillation of 0.1 ml of an ethanolic solution (30%) of DNBS (40 mg/ml). Compound V was administered orally once a day for four consecutive days at 25 mg/kg and 50 mg/kg, starting one hour after sensitization with DNBS. On the fourth day, mice were sacrificed and 8 cm of the distal colon was collected and opened longitudinally for macroscopic evaluation.

[1] = system: experimental autoimmune encephalomyelitis (EAE); assay: PLP-induced experimental autoimmune encephalomyelitis (EAE) in SJL mice; format: in vivo
Protocol: The PLP-induced experimental autoimmune encephalomyelitis (EAE) mouse model serves as a model of multiple sclerosis. On day O, SJL mice were immunized with 75 μg of PLP (139-151) emulsified in Freund's complete adjuvant (200 μl emulsion per mouse s.c. divided among four sites) and with pertussis toxin (200 ng, i.p.). The i.p. injection of pertussis toxin was repeated on day 2. Compound V was administered orally once a day at 25 mg/kg and 50 mg/kg, starting at day 0 and until 30 days post immunization, six times a week. […] Clinical grading of symptoms was carried out according to the following scale: 0=no illness, 1=flaccid tail, 2=moderate paraparesis, 3=severe paraparesis, 4=moribound state, 5=death.

PC-3 cells = assay: In vitro PC-3 cell adhesion to extracellular matrix components; format: cell-based, human; conditions: different concentrations
Protocol: An in vitro cell adhesion assay was used to assess the effect of the compounds on cancer cell adhesion. Microtiter 96-well plates were coated for 1 hr at room temperature with […] of adhesive ligands previously diluted to 5 μg/ml for laminin, 10 μg/ml for MATRIGEL™ basement membrane matrix, or 10 μg/ml for collagen in PBS. The wells were blocked with a solution of 1% BSA in PBS (100 μl/well) for 1 hr at 37° C. Subconfluent cultures of PC-3 cells were incubated with a 5 μM solution of calcein-AM for 30 min at 37° C., and then free calcein-AM was washed out (30 min) by incubation of the PC-3 cells in media without calcein-AM. Calcein-AM-labeled cells were trypsinized, washed, and resuspended in adhesion buffer (RPMI-1640, 10% FBS supplemented with 1 mM of MgCl2). Labeled PC-3 cells were preincubated in absence or presence of compounds for 30 min and then a final volume of 100 μl of preincubated cells were allowed to attach at 37° C. in a humidified incubator for 15 min, 30 min, or 60 min at 37° C. Nonattached cells were removed by two washes with PBS and attached cells were lysed with 100 μl of a 1% Triton X-100 solution in PBS. Plates were read on a Tecan GENios Plus fluorescent reader with an excitation wavelength of 485 nm and an emission wavelength of 530 nm. The number of attached cells was calculated based upon standard curves. Nonspecific cell attachment (attachment to wells coated with BSA) was always less than 5%.

PGE2 production = assay: LPS-induced PGE2 production in J774A.1 cells (ELISA); format: cell-based; conditions: Mus musculus, J774.A1, 24 hr, FIG. 11
Protocol: Effect of compounds on PGE2 production was measured by ELISA using J774A.1 cells stimulated by LPS. J774A.1 cells were cultured in the presence or absence of LPS and compound. Cells were cultured for 24 hr at 37° C. and thereafter the supernatants were collected for the determination of the concentration of PGE2 by ELISA as recommended by the manufacturer (GE Healthcare). Data was analyzed in Microsoft Excel software and the concentration of compound which inhibits 50% of PGE2 production (IC50) was calculated using Prism software.

Row | Compound | mortality of NZB×NZW mice (NZB×NZW mice) | DNBS-induced macroscopic damage area of the colon mucosal tissue (DNBS-induced colitis; oral 25 mg/kg and 50 mg/kg, FIG. 22) | body weight (DNBS-induced colitis; oral once a day for four days, 25 mg/kg and 50 mg/kg) | activity on clinical signs of EAE ([1]; oral 50 mg/kg, vs vehicle) | appearance of clinical signs of EAE ([1]; oral once a day, 25 mg/kg and 50 mg/kg, until 30 days, FIG. 23) | PC-3 cell adhesion to laminin (PC-3 cells; FIG. 1A) | PC-3 cell adhesion to MATRIGEL basement membrane matrix (PC-3 cells; FIG. 1B) | PC-3 cell adhesion to collagen (PC-3 cells; FIG. 1C) | IC50 (PGE2 production) [nM]
1 | NCCCCCNc1nc(NCCc2ccc(O)cc2)nc(Nc2cccc(F)c2)n1 [Compound I] | reduces the mortality |  |  |  |  |  |  |  | 
2 | NCCCCCNc1nc(NCCc2ccc(O)cc2)nc(Nc2ccc(F)cc2)n1 [Compound V] |  | strong and significant decrease | weak but significant increase of body weight | significant activity | reduces in a dose dependent manner the appearance of signs of EAE | inhibits PC-3 cells adhesion in a dose dependent fashion | inhibits PC-3 cells adhesion in a dose dependent fashion | inhibits PC-3 cells adhesion in a dose dependent fashion | 2000
